Earlier results, collected in patent US10980740B2, “Tranexamic acid spray for knee arthroplasty” (SHILPA MEDICARE LIMITED, priority 2017, dated 2021).
Like-named read-outs stand apart in the source and are kept apart here.

How the values were obtained:
[1] = tested on: Total knee arthroplasty patients
[2] = tested on: patients undergoing elective total knee arthroplasty
plasminogen = plasminogen (Homo sapiens, UniProt P00747)
plasminogen, sequence (P00747 20-810 limits assumed, species assumed): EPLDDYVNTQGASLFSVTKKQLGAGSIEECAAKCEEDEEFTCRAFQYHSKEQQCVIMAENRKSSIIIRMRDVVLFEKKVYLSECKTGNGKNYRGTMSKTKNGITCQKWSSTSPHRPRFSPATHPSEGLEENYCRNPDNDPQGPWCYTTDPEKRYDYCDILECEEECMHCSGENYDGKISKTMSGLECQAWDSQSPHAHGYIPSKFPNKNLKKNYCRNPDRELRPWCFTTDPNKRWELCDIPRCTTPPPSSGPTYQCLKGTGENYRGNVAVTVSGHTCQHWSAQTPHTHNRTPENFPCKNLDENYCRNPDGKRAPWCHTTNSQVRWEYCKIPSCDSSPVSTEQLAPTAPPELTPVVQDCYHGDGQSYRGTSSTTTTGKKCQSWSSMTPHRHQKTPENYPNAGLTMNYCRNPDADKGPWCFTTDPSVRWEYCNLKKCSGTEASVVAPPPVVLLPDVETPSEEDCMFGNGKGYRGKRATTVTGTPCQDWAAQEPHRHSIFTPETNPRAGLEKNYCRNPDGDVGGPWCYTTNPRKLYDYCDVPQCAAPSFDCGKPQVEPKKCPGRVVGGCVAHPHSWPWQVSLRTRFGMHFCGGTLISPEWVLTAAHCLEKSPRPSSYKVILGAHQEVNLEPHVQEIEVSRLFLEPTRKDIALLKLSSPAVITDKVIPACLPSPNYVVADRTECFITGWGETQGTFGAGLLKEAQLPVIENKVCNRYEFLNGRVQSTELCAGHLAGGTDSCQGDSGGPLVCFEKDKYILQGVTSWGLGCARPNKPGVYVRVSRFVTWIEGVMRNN

NC[C@H]1CC[C@H](C(=O)O)CC1 [Tranexamic acid]
systemic side effects ([1]; topical tranexamic acid): reduces the systemic side effects
reduction of peri- and post-operative blood loss, topical compared with intravenous ([1]; total knee arthroplasty, topical 2 gm in intra-articular drain, clamped one hour): equally efficacious
reducing calculated blood loss and transfusion rates ([2]; intravenous): effective
reducing calculated blood loss and transfusion rates ([2]; topical, 3 gm diluted in 45 mL normal saline, applied after cementation): effective
potency in vitro relative to aminocaproic acid (plasminogen): about 10 times
